Measurements taken from patent US20150344426A1, “COMPOUNDS AND THERAPEUTIC USES THEREOF” (ALZHEIMER'S INSTITUTE OF AMERICA, INC., priority 2012, published 2015).
Where “and” joins values, the source holds several entries; their conditions need not be identical. Identical values can stand only once. Like-named read-outs stand apart in the source and are kept apart here.

Tests used:
[1] = tested on: HT1080 human fibrosarcoma cancer cells; assay: Anti-tumor activity in HT1080 human fibrosarcoma xenograft with twice daily dosing; format: in vivo; details: for tumor regression: by Day 8
Method: One million HT1080 cells were implanted subcutaneously in the right flank of female nude mice (Crl:NU-Fox1^nu). When the median tumor volume (MTV) was approximately 209 mm^3, mice were randomized into four cohorts of ten animals. […] All cohorts were dosed twice daily for 7 days. The mice were observed daily for mortality and signs of toxicity. Tumor volumes and body weights were determined from Days 1 to 22. The results are depicted in FIG. 4.

[2] = Experiment 1: hepatic portal vein samples of rats after oral Example Compound 35; format: in vivo, female Sprague-Dawley rats; details: 20 mg/kg, portal vein; for [Par. Cmp. A]: listed as Par. Cmp. A
Description: It is believed that Example Compound 35 metabolizes in vivo into Parent Compound A (i.e., it is believed that Example Compound 35 is a prodrug of Parent Compound A). The objective of this study was to determine the concentration of Example Compound 35 and Parent Compound A in hepatic portal vein samples of female Sprague-Dawley rats following oral administration of only Example Compound 35, and to quantify the extent of transport into hepatic portal circulation, if any, of Example Compound 35. A second objective was to determine the relative bioavailability of Parent Compound A in the portal vein following oral administration of Example Compound 35.
Experiment 1. Three female Sprague Dawley rats (200-215 g, Harlan Laboratories, Indianapolis, Ind.) with cannulae implanted surgically in the portal vein for blood sampling were used in this study. Example Compound 35, formulated in 50 mM Glycine pH 3.0 with 0.5% HPMC and 0.05% Tween-80, was administered by oral gavage (PO) at a dose of 20 mg/kg in a volume of 2 mL/kg. This dose is the molar equivalent of a 13.5 mg/kg dose of Parent Compound A. Portal blood samples were collected through the portal vein cannula from each animal at 0.25, 0.5, 1, 2, 4, and 8 hours following administration of compound. Samples were split into two fractions and one was supplemented with citrate buffer (final concentration 100 mM, pH 3.0) to stabilize Example Compound 35 and stop conversion of Example Compound 35 to Parent Compound A ex vivo during analysis. Samples were then processed to generate plasma and analyzed for Example Compound 35 by LC-MS/MS. Plasma derived from the second aliquot of blood was analyzed for Parent Compound A.
Pharmacokinetic parameters estimated for Parent Compound A included the maximum observed drug concentration (Cmax), time of maximum observed drug concentration (Tmax), apparent terminal half-life (t1/2), area under the concentration-time curve from time zero to 8 hours postdose (AUC(0-8)), and area under the concentration-time curve extrapolated to infinity (AUC(0-inf)). The bioavailability (% F) of Parent Compound A in portal vein samples relative to IV administration was also estimated.
Plasma samples were analyzed for Example Compound 35 or Parent Compound A concentration using a LC-MS/MS method. All sample runs met standard acceptance criteria for discovery purposes, and were based on a standard curve containing at least 7 points. At least half of quality control samples at each of the three concentrations tested, and two thirds of the entire quality control sample pool, were within 15% of their theoretical value. The r^2 value for each standard curve was ≧0.99. The quantitation range for the Example Compound 35 and Parent Compound A assays was 1 to 100 ng/mL and 5 to 2,500 ng/mL, respectively, using a 0.05 mL sample volume.
The data were entered into the PK software package WinNonlin® version 5.1.1. A complete data check was conducted to verify the accuracy of data entry.
Pharmacokinetic parameters were estimated on median plasma concentrations using extravascular input (PO). Nominal collection times after administration of compound were used for PK analyses. The use of a non-compartmental model provided an adequate fit of the data. Pharmacokinetic parameters estimated for Parent Compound A included the maximum observed drug concentration (Cmax), time of maximum observed drug concentration (Tmax), apparent terminal half-life (t1/2), apparent volume of distribution (Vz obs), apparent clearance (C1 obs), area under the concentration-time curve from time zero to 8 hours postdose of Example Compound 35 […], and area under the concentration-time curve extrapolated to infinity (AUC(0-inf)). Example Compound 35 was detected in only one 0.25 hour hepatic portal vein sample at 1.29 ng/mL. Any Example Compound 35 present in all of the other samples was below the quantitation limit of 1 ng/mL and pharmacokinetic parameters were not determined for those samples. […]

## O=C(NCc1cccnc1)Nc1ccc(OCCc2ccccc2-c2ccccc2)cc1 [Parent Compound A, 1-{4-[2-(Biphenyl-2-yl)ethoxy]phenyl}-3-(pyridin-3-ylmethyl)urea]
[1]; 3 mg/kg orally twice daily for seven days, Day 21
  tumor growth inhibition relative to vehicle: 60%
[1]; 3 mg/kg orally twice daily for seven days, end of dosing, Day 9
  MTV increase: 221%
[1]; 3 mg/kg orally twice daily for seven days, end of the study, Day 21
  MTV increase: 622%
[1]; 4 mg/kg orally twice daily for seven days, Day 21
  tumor growth inhibition relative to vehicle: 81%
[1]; 4 mg/kg orally twice daily for seven days
  tumor regression: 13%
[1]; 4 mg/kg orally twice daily for seven days, end of dosing, Day 9
  MTV as % of the initial value: 87%
[1]; 4 mg/kg orally twice daily for seven days, end of the study, Day 21
  MTV increase: 296%
[1]; 5 mg/kg orally twice daily for seven days, Day 21
  tumor growth inhibition relative to vehicle: 85%
[1]; 5 mg/kg orally twice daily for seven days
  tumor regression: 22%
[1]; 5 mg/kg orally twice daily for seven days, end of dosing, Day 9
  MTV as % of the initial value: 78%
[1]; 5 mg/kg orally twice daily for seven days, end of the study, Day 21
  MTV increase: 235%
[1]; 7 mg/kg orally twice daily for seven days, Day 21
  tumor growth inhibition relative to vehicle: 89%
[1]; 7 mg/kg orally twice daily for seven days
  tumor regression: 78%
[1]; 7 mg/kg orally twice daily for seven days, end of dosing, Day 9
  MTV as % of the initial value: 22%
[1]; 7 mg/kg orally twice daily for seven days, end of the study, Day 21
  MTV increase: 175%
[1]; 9 mg/kg orally twice daily for seven days, Day 21
  tumor growth inhibition relative to vehicle: 95%
[1]; 9 mg/kg orally twice daily for seven days
  tumor regression: 61%
[1]; 9 mg/kg orally twice daily for seven days, end of dosing, Day 9
  MTV as % of the initial value: 39%
[1]; 9 mg/kg orally twice daily for seven days, end of the study, Day 21
  MTV increase: 85%
[1]; Parent Compound A study, 3 mg/kg, cohort of ten
  animals with tumor volumes exceeding 1,500 mm^3 euthanized: three
[1]; Parent Compound A study, 4 mg/kg, cohort of ten, two found dead, one euthanized for tumor volume
  deaths: three
[1]; Parent Compound A study, 5 mg/kg, cohort of ten
  animals with no detectable tumor by the end of the study: One
[1]; Parent Compound A study, 7 mg/kg, cohort of ten
  animals with no detectable tumor by the end of the study: One
[1]; Parent Compound A study, 9 mg/kg, cohort of ten
  animals with no detectable tumor by the end of the study: One
[1]; administered orally, twice daily, all doses tested
  anti-tumor activity in the HT1080 xenograft model (summary statement): significant anti-tumor activity
[1]; over the course of the study, all doses tested, orally twice daily
  maximal reduction in median body weight: < 10 % of the initial weight
[1]; xenograft mice, all doses tested, orally twice daily
  Tolerability: well tolerated
[2]; female, Sprague-Dawley, rat, plasma (hepatic portal vein), po, 0.25 hr after oral Example Compound 35 20 mg/kg, read-out: Median [Par. Cmp. A]
  concentration at 0.25 h: 961 ng/mL
[2]; female, Sprague-Dawley, rat, plasma (hepatic portal vein), po, 0.5 hr after oral Example Compound 35 20 mg/kg, read-out: Median [Par. Cmp. A]
  concentration at 0.5 h: 2820 ng/mL
[2]; female, Sprague-Dawley, rat, plasma (hepatic portal vein), po, 1 hr after oral Example Compound 35 20 mg/kg, read-out: Median [Par. Cmp. A]
  concentration at 1 h: 2460 ng/mL
[2]; female, Sprague-Dawley, rat, plasma (hepatic portal vein), po, 2 hr after oral Example Compound 35 20 mg/kg, individual rats, read-out: [Par. Cmp. A]
  concentration at 2 h: 1800 ng/mL
[2]; female, Sprague-Dawley, rat, plasma (hepatic portal vein), po, 2 hr after oral Example Compound 35 20 mg/kg, read-out: Median [Par. Cmp. A]
  concentration at 2 h: 1930 ng/mL
[2]; female, Sprague-Dawley, rat, plasma (hepatic portal vein), po, 4 hr after oral Example Compound 35 20 mg/kg, read-out: Median [Par. Cmp. A]
  concentration at 4 h: 1000 ng/mL
[2]; female, Sprague-Dawley, rat, plasma (hepatic portal vein), po, 8 hr after oral Example Compound 35 20 mg/kg, read-out: Median [Par. Cmp. A]
  concentration at 8 h: 41 ng/mL
[2]; 0.25 hr after oral Example Compound 35 20 mg/kg, individual rats
  [Par. Cmp. A]: 417.4 ng/mL and 2,306.7 ng/mL and 961.4 ng/mL
[2]; 0.5 hr after oral Example Compound 35 20 mg/kg, individual rats
  [Par. Cmp. A]: 2,819.4 ng/mL and 2,818.9 ng/mL and 577.7 ng/mL
[2]; 1 hr after oral Example Compound 35 20 mg/kg, individual rats
  [Par. Cmp. A]: 1,064.4 ng/mL and 2,455.1 ng/mL and 3,237.2 ng/mL
[2]; 2 hr after oral Example Compound 35 20 mg/kg, individual rats
  [Par. Cmp. A]: 2,398.5 ng/mL and 1,930.2 ng/mL
[2]; 4 hr after oral Example Compound 35 20 mg/kg, individual rats
  [Par. Cmp. A]: 1,004.3 ng/mL and 2,254.2 ng/mL and 177.4 ng/mL
[2]; 8 hr after oral Example Compound 35 20 mg/kg, individual rats
  [Par. Cmp. A]: 41.0 ng/mL and 378.5 ng/mL and 15.9 ng/mL
